Experiments:
[1] = system: AlCl3-induced AD rat model; assay: Y-maze SAP test in AlCl3-induced AD rats; type: in vivo; conditions: mean ± SE, n = 6
Procedure, shortened: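 Spontaneous alternation performance measured in male Dawley rats (300–320 g) with AlCl3-induced AD, each allowed 8 min free exploration of a three-arm Y-maze. Arm entries counted with hind paws fully inside; SAP (%) = alternations/(total entries − 2) × 100.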

5-HT = assay: Brain 5-HT level (fluorometric); type: in vivo, rat; conditions: AlCl3-induced AD rats
Method: (§1) The brain tissues of the rats were removed and rigorously washed in isotonic saline 24 h after they were euthanized following the last behavioral test. For histological investigation, four brains per group were preserved for the whole night in 10% neutral buffered formalin. The remaining six brains were split into two sections each. In order to create a 10% homogenate (w/v), the first component was instantaneously homogenized using an ice-cold solution that included 300 mM sucrose and 50 mM Tris-HCl (pH 7.4). The homogenate was centrifuged at 1800× g for 10 min at 4 °C for biochemical tests, and the supernatant was thereafter kept at −20 °C. The second portion was set aside for use in RT-PCR analysis at −80 °C [94].
(§2) Brain monoamine levels were promptly assessed following the rats’ euthanasia to prevent changes in the substance’s concentration. Dopamine (DA), norepinephrine (NE), and serotonin (5-HT) fluorometric tests were conducted on brain tissue homogenate using the Ciarlone method. […] The concentrations were articulated as nanograms per gram of fresh tissue using the fluorescence of reference solutions [95].

NE = assay: Brain NE level (fluorometric); type: in vivo, rat; conditions: AlCl3-induced AD rats
Method: as §1, §2

BDNF = assay: Brain BDNF level (ELISA); type: in vivo, rat; conditions: AlCl3-induced AD rats
Method: as §1
(§3) See Supplementary Information.

AChE = type: in vivo; design: reduction in AChE levels: concentration or dose not given beside the values; conditions: AlCl3-induced AD rats
IL-1β = assay: Brain IL-1β level (ELISA); type: in vivo, rat; design: reduction in IL-1β levels: concentration or dose not given beside the values; conditions: AlCl3-induced AD rats
Method: as §1, with “[94]. […]” for “[94].”

TLR4 = TLR4 mRNA expression (RT-qPCR); type: in vivo, rat; design: reduction of TLR4 mRNA expression: concentration or dose not given beside the values; conditions: AlCl3-induced AD rats
Method: as §1, §3

NFκβ = NFκβ mRNA expression (RT-qPCR); type: in vivo, rat; design: reduction of NFκβ mRNA expression: concentration or dose not given beside the values; conditions: AlCl3-induced AD rats
Method: as §1, §3

Caspase-1 = Caspase-1 gene expression (RT-qPCR); type: in vivo, rat; design: reduction of Caspase-1 levels: concentration or dose not given beside the values; conditions: AlCl3-induced AD rats
Method: as §1, §3

Bcl-2 = Bcl-2 gene expression (RT-qPCR); type: in vivo, rat; conditions: AlCl3-induced AD rats
Method: as §1, §3

Wnt3a = assay: Brain Wnt3a level; type: in vivo, rat; conditions: AlCl3-induced AD rats
Method: as §1, §3

GSK3β = GSK3β gene expression (RT-qPCR); type: in vivo, rat; conditions: AlCl3-induced AD rats
Method: as §1, §3

β-catenin = assay: Brain β-catenin level; type: in vivo, rat; conditions: AlCl3-induced AD rats
Method: as §1, §3

SOD = assay: Brain SOD activity (colorimetric); type: in vivo, rat; conditions: brain tissue, AlCl3-induced AD rats; mean ± SE, n = 6
Method: as §1
The SOD enzyme activity was estimated using the Marklund et al. method, which is founded on the enzyme’s capacity to decrease the nitro blue tetrazolium dye at a wavelength of 540 nm. To evaluate the TAC, a colorimetric approach was employed to estimate the amount of hydrogen peroxide that remains after 3,5-dichloro-2-hydroxybenzene sulphonate is converted to a colored product at 660 nm.

Nrf-2 = Nrf-2 mRNA expression (RT-qPCR); type: in vivo, rat; conditions: AlCl3-induced AD rats
Method: as §1, §3

HO-1 = HO-1 mRNA expression (RT-qPCR); type: in vivo, rat; conditions: AlCl3-induced AD rats
Method: as §1, §3

[2] = system: brain tissue (CC, ST, FD, SN neurons); assay: Histopathological examination of brain tissue; type: in vivo, rat; conditions: brain sections, AlCl3-induced AD rats
Method: as §1
Brain tissue samples were stationed in 10% formalin for 24 h, washed with water, and then serially diluted with alcohol to induce dehydration. After being submerged in paraffin, the specimens were cut into segments that were 4 µm thick using a microtome.

BAX/Bcl-2 = BAX/Bcl-2 ratio of gene expression; type: in vivo, rat; conditions: AlCl3-induced AD rats
Method: as §1, §3

[3] = mRNA expression level, mean ± SE, n = 6
[4] = gene expression, mean ± SE, n = 6
[5] = mRNA expression in brain tissue, mean ± SE, n = 6

O=C1CN(c2ccc(Cl)cc2)C(=O)c2c(sc3c2CCCCC3)O1 [Compound 12, 4-(4-Chlorophenyl)-3,4,7,8,9,10-hexahydro-6H-cyclohepta[4,5]thieno[3,2-f][1,4]oxazepine-2,5-dione]
SAP% [1]: 76.5 ± 1.52 ^abc % | elevation of 5-HT levels (5-HT): 2.8 fold | 5-HT (ng/g Tissue) (5-HT; brain tissue, mean ± SE, n = 6): 5.07 ± 0.18 ^abc ng/g Tissue | rise in the level of NE (NE): 2.2 times | NE (nmol/g Tissue) (NE; brain tissue, mean ± SE, n = 6): 420.5 ± 2.86 ^abc nmol/g Tissue | elevation of BDNF levels (BDNF): 2 fold | BDNF (ng/mL) (BDNF; brain tissue, mean ± SE, n = 6): 83.62 ± 0.06 ^abc ng/mL | AChE (ng/g Tissue) (AChE; brain tissue, mean ± SE, n = 6): 35.66 ± 0.19 ^abc ng/g Tissue | reduction in AChE levels (AChE; brain): 47% | reduction in IL-1β levels (IL-1β): 53.9% | IL-β (pg/g Tissue) (IL-1β; mean ± SE, n = 6): 54.51 ± 1.3 ^abc pg/g Tissue | reduction of TLR4 mRNA expression (TLR4): 71.4% | TLR4 (TLR4; [3]): 2.75 ± 0.06 ^abc | reduction of NFκβ mRNA expression (NFκβ): 49.2% | NFκβ (NFκβ; [3]): 4.30 ± 0.14 ^abc | reduction of Caspase-1 levels (Caspase-1): 52.3% | Caspase-1 (Caspase-1; [4]): 4.54 ± 0.090 ^abc | upregulation of Bcl-2 gene expression (Bcl-2): 6.8 fold | Bcl-2 (Bcl-2; [4]): 0.82 ± 0.020 ^abc | elevation of Wnt3a levels (Wnt3a): 6.3 fold | Wnt3a (ng/g Tissue) (Wnt3a; mean ± SE, n = 6): 0.76 ± 0.01 ^abc ng/g Tissue | reduction of GSK3β gene expression (GSK3β): 47.4% | GSK3β (GSK3β; [4]): 5.36 ± 0.07 ^abc | elevation of β-catenin levels (β-catenin): 6.3 fold | β-Catenin (ng/L) (β-catenin; mean ± SE, n = 6): 9.91 ± 0.15 ^abc ng/L | SOD(U/g) (SOD): 2.15 ± 0.39 ^abc U/g | elevation of Nrf-2 mRNA expression (Nrf-2): 4 fold | Nrf-2 (Nrf-2; [5]): 0.64 ± 0.020 ^abc | elevation of HO-1 mRNA expression (HO-1): 5.7 fold | HO-1 (HO-1; [5]): 0.69 ± 0.020 ^abc | histopathological finding in CC, ST, FD and SN (NP = nuclear pyknosis) ([2]; H&E): normal histology in CC and FD, as well as mild NP in ST and SN | histology of CC neurons and FD [2]: normal histological structures | pyknosis in ST and SN neurons [2]: minimal pyknosis | BAX/Bcl-2 Ratio (BAX/Bcl-2): 5.91

From PMC12389534, “Unlocking Therapeutic Potential of Novel Thieno-Oxazepine Hybrids as Multi-Target Inhibitors of AChE/BChE and Evaluation Against Alzheimer’s Disease: In Vivo, In Vitro, Histopathological, and Docking Studies” (Pharmaceuticals, 2025)
